Entries after “also recorded” stand apart in the source; their conditions may differ.
Legend:
[1] = system: CFA-induced thermal hyperalgesia in mice; test: CFA-induced heat hyperalgesia (Hargreaves test) after intrathecal injection; type: in vivo, mouse
Experimental: All behavioral tests were performed with an experimenter blinded to the genotype. The mice used in the tests were backcrossed to C57BI/6 mice for at least five generations and were 2 to 3 month-old males (20-30 g).
CFA-induced heat hyperalgesia: the intraplantar region of one hind paw of each mouse was injected with 6 μl of 50% CFA solution or 10 μl of 1% carrageneen solution in saline. Thermal pain sensitivity was assessed by recording paw withdrawal latencies on exposure to a defined radiant heat stimulus (Hargreaves test) before CFA injection and 30 min after injection.
(§1) BAM 8-22 was purchased from Tocris (Bristol, UK) and was suspended in 0.9% saline. The drug was injected intrathecally under brief isoflurane (1.5%) anesthesia to reduce stress. A 30-gauge, 0.5-inch needle connected to a 10-μl syringe was inserted into one side of the L5 or L6 spinous process at an angle of approximately 20° above the vertebral column and slipped into the groove between the spinous and transverse processes. The needle was moved carefully forward to the intervertebral space.
The ability of BAM 8-22 to modulate persistent inflammatory pain was determined by examining enhanced pain sensitivity to a noxious heat stimulus, as monitored by the Hargreaves test 24 hours after intra-plantar injection of CFA (6 μl, 50%) into one hind paw. […] In WT mice, a single intrathecal injection of BAM 8-22 (1 mM, 5 μl) was able to alleviate thermal hyperalgesia at 30 min post-injection, increasing the PWL by 1.9-fold compared to pre-drug baseline (FIG. 6A, WT, n=13, ipsilateral paw).

[2] = system: acute thermal nociception in mice; test: Tail immersion test (50° C.) after intrathecal injection; type: in vivo, mouse; conditions: naive WT and Mrgpr-clusterΔ−/− mice, 1 mM, 5 μl i.th.
Experimental: Tail immersion test: mice were gently restrained in a 50-ml conical tube that the mice voluntarily entered. The protruding one third of the tail was then dipped into a 50° C. water bath. Latency to respond to the heat stimulus with vigorous flexion of the tail was measured three times and averaged.
as §1
To determine whether intrathecal BAM 8-22 also affected acute thermal nociception, tail-immersion tests in naïve WT and Mrgpr-clusterΔ^−/− mice were performed.

human MrgprX1 = human MrgprX1 (Homo sapiens, UniProt Q96LB2); conditions: literature; cited from earlier work
Sequence of human MrgprX1 (Q96LB2 whole entry): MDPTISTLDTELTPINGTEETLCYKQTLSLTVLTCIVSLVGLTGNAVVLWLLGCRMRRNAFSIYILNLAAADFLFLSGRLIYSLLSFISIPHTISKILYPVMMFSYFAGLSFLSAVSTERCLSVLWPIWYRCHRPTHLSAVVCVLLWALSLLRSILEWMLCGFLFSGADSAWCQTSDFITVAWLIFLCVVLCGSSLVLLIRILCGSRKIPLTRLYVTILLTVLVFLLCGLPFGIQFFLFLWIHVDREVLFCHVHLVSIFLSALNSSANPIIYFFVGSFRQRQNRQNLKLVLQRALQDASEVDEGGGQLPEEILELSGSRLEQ

rat MrgprC = molecular target: T1, rat MrgprC (Rattus norvegicus, UniProt Q8R4G1); conditions: Han et al, 2002, Lembo et al.; cited from earlier work
T1 sequence (Q8R4G1 1-323): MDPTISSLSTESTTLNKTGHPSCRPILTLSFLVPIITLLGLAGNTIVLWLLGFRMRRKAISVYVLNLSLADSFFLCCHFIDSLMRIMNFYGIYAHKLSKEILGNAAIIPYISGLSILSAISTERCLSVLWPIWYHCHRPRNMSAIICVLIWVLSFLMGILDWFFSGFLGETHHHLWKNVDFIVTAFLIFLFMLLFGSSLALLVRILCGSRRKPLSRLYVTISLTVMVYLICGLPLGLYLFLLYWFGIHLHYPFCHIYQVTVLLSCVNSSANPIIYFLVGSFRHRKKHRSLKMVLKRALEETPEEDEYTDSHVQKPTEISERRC

BAM 8-22
anti-hyperalgesic effect, ipsilateral hind paw ([1]; Mrgpr-clusterΔ−/− mice, 1 mM, 5 μl i.th., 24 h after CFA): not observed | sensitivity to acute radiant heat (Hargreaves test) ([1]; WT and Mrgpr-clusterΔ−/− mice, contralateral hind paw): did not significantly change | thermal hyperalgesia of the ipsilateral hind paw ([1]; WT mice, 1 mM, 5 μl i.th., 24 h after CFA): significantly alleviated | increase of paw withdrawal latency (PWL) compared to pre-drug baseline ([1]; WT mice, ipsilateral paw, 1 mM, 5 μl i.th., 30 min post-injection, 24 h after CFA): 1.9 fold | PWL of the contralateral (control side) hind paw ([1]; either group (WT, Mrgpr-clusterΔ−/−), 1 mM, 5 μl i.th.): did not significantly affect | tail flick latency vs pre-drug [2]: not significantly different; also recorded: did not significantly change | activation of human MrgprX1 (human MrgprX1): specifically activates | activation of rat MrgprC (rat MrgprC): specifically activates

— US20110150769A1, “IDENTIFICATION AND USE OF COMPOUNDS FOR TREATING PERSISTENT PAIN” (priority 2009, published 2011)
